Data: PubChem BioAssay (NCI)
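Growth conditions: 96-well plates. Treatment: test compound, 48 hours, 5 concentrations. Analysis: linear interpolation between bracketing concentrations; unreached endpoints set to highest concentration. The concentration for full growth arrest is given as TGI.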

Experiments:
Experiment in all cases: NCI tumour cell line growth inhibition, 48 h
DLD-1 colon = system: DLD-1 colon
DMS 273 small cell lung = system: DMS 273 small cell lung
HOP-18 NSCLC = system: HOP-18 NSCLC
KM20L2 colon = system: KM20L2 colon
M19-MEL melanoma = system: M19-MEL melanoma
P388/ADR leukemia = system: P388/ADR leukemia
SN12K1 renal = system: SN12K1 renal
LXFL 529 NSCLC = system: LXFL 529 NSCLC

Structure (SMILES): CC(C)(C)OC(=O)NC1CCC(C(C)(C)C)CC1 (configuration not stated)
- TGI (DLD-1 colon): > 100 µM
- TGI (DMS 273 small cell lung): 99.2 µM
- TGI (HOP-18 NSCLC): > 100 µM
- TGI (KM20L2 colon): > 100 µM
- TGI (M19-MEL melanoma): > 86.7 µM
- TGI (P388/ADR leukemia): > 100 µM
- TGI (SN12K1 renal): > 100 µM

Structure (SMILES): O=C(Oc1ccc(Cl)cc1[N+](=O)[O-])c1ccccc1
- TGI (DLD-1 colon): > 100 µM
- TGI (DMS 273 small cell lung): > 100 µM
- TGI (HOP-18 NSCLC): > 100 µM
- TGI (KM20L2 colon): > 100 µM
- TGI (LXFL 529 NSCLC): > 100 µM
- TGI (M19-MEL melanoma): > 100 µM

Structure (SMILES): O=C1OC2CC=CC1C2 (configuration not stated)
- TGI (DLD-1 colon): > 100 µM
- TGI (DMS 273 small cell lung): > 100 µM
- TGI (HOP-18 NSCLC): > 100 µM
- TGI (KM20L2 colon): > 100 µM
- TGI (M19-MEL melanoma): > 100 µM
- TGI (P388/ADR leukemia): > 100 µM
- TGI (SN12K1 renal): > 100 µM

Structure (SMILES): C=C1C(=O)OC2CC1CCC1(C)OC1CCC(C)=CCCC2(C)O (configuration not stated)
- TGI (DLD-1 colon): 6.12 µM
- TGI (DMS 273 small cell lung): 9.89 µM
- TGI (HOP-18 NSCLC): 3.37 µM
- TGI (KM20L2 colon): 8.58 µM
- TGI (M19-MEL melanoma): 11.8 µM
- TGI (P388/ADR leukemia): 10.8 µM
- TGI (SN12K1 renal): 11.9 µM
